Legend:
AmelOBP2 [1] = target: T1, AmelOBP2 (Apis mellifera, UniProt A0A8U0WQ64); assay: Fluorescence competitive binding assay with 1-NPN as probe; set-up: species or system Apis mellifera ligustica; details: for Ki: Ki = [IC50]/(1 + [1-NPN]/K1-NPN), read-out: Ki (binding constant); for IC50: odor standard concentration at which AmelOBP2/1-NPN fluorescence is reduced to half; for binding ability to AmelOBP2 (in words): fluorescence competitive binding
Description: The binding ability of the recombinant protein AmelOBP2 to the 14 tomato and 25 melon floral volatiles was determined using a fluorescence competitive binding assay. The IC50 values of the odor standard compounds obtained from the fluorescence competitive binding curve (Figure 6) and the binding constant Ki between AmelOBP2 and the odor standard compounds are shown in Table 1.
(§1) The ability of AmelOBP2 to bind to floral volatiles in tomato and melon greenhouses was determined using an RF-5301PC fluorescence spectrophotometer (Shimadzu, Japan) with […] (1-NPN) (TCI, Japan) as the fluorescence probe (Table A5). The parameters of the RF-5301PC fluorescence spectrophotometer are set as follows: the emission wavelength range is 360–500 nm, the excitation wavelength is 337 nm, and the slit width is 3 nm. This process was similar to that described by Du et al.. Data were processed using GraphPad Prism 8.0. The binding constant (Ki) of AmelOBP2 and odor volatiles were computed using the following equation [26]:Ki = [IC50]/(1 + [1-NPN]/K1-NPN)
IC50 refers to the concentration of the odorant at which the fluorescence intensity of the AmelOBP2/1-NPN complex was reduced by 50%. 1-NPN refers to the concentration of unbound 1-NPN, while K1-NPN refers to the binding constant of the AmelOBP2/1-NPN complex. The smaller the Ki, the stronger the binding ability of the substance to the recombinant protein. Ki values ranging from 0 to 5µM indicate strong binding ability with AmelOBP2.

[2] = test system: Apis mellifera ligustica antennae; assay: Electroantennogram (EAG) response to compounds under RNAi silencing; assay type: in vivo; set-up: concentration or dose not given beside the values; details: decrease of EAG response in honeybees fed siAmelOBP2
From the text: To clarify the physiological function of amelobp2 in the detection of floral volatiles in honeybees, we selected the following five volatiles: e-2-hexenal, e-2-octenal, 1-nonanal, 2-methyl-5-(1-methyl ethenyl)-cyclohexanone, and methyl benzene. Specifically, e-2-hexenal and e-2-octenal are volatiles of melon flowers; 2-methyl-5-(1-methyl ethenyl)-cyclohexanone and methyl benzene are volatiles of tomato flowers; and 1-nonanal is both a melon flower volatile and a tomato flower volatile. The antennal electrical activity of the honeybees was measured after feeding with siAmelOBP2.
Based on the results of the fluorescence competitive binding tests and our previous research involving EAG tests, odor-standard compounds were identified for testing (Table A5). The optimal siRNA and silencing time were determined by an experiment and fed to honeybees. The EAG response was measured using an EAG insect antennal potential measurement system (Syntech, Netherlands). Each measurement was repeated using three antennae. The results of the antennal potential measurements were expressed as the EAG relative response value (rEAG), which was calculated as follows:rEAG = (EAG (X) − EAG (std))/EAG (std)(1)
EAG (X) represents the response amplitude (mV) of the EAG to a given compound, while EAG (std) represents the response amplitude (mV) of the EAG to the reference liquid paraffin at each recording stage.

AmelOBP2 [3] = target: T1, AmelOBP2; assay: Binding curve and Scatchard plot of fluorescence probe 1-NPN to recombinant AmelOBP2; set-up: species or system Apis mellifera ligustica; details: Scatchard plot; excitation 337 nm, emission maximum 405 nm; read-out: binding constant between AmelOBP2 and the probe
Description: At an excitation wavelength of 337 nm, no clear fluorescence signal was observed from the AmelOBP2 protein working solution. By adding 3 μL of the 1-NPN solution to the protein working solution successively, the maximum fluorescence intensity was found at 405 nm, and the fluorescence intensity increased with the increase in the probe concentration. The resulting data were then fitted using regression and Scatchard processing to produce a combination curve and linear equation for AmelOBP2 and 1-NPN (Figure 5).
as §1

AmelOBP2 mRNA = assay: RNAi silencing effect on AmelOBP2 mRNA after siRNA feeding (qRT-PCR); assay type: in vivo, Apis mellifera ligustica; details: 8 μg per bee, 20-d-old honeybees
Description: Total RNA and cDNA were obtained according to Du et al.. The obtained cDNA was subjected to qRT-PCR using the SYBR fluorescent dye method (Takara, Japan) (Table A1). The primers were synthesized by Sangon Biotech (Table A2). Data processing refers to Livak and Schmittgen (2^−ΔΔCt method).
Honeybees were collected at 20 d of age from an apiary at the College of Animal Science, Shanxi Agricultural University. Honeybees were randomly divided into 4 groups (n = 40) and starved in an incubator for 30 min (65–70% relative humidity; 28 ± 1 °C). Honeybees were fed with siAmelOBP2 (8 μg per bee dissolved in sucrose solution); the siAmelOBP2 are recorded as siAmelOBP2-1 (79 bp) and siAmelOBP2-2 (329 bp). We used siNC and 30% sucrose solution as the controls. After feeding, the honeybees were placed back in the incubator. At 24, 48, 72, and 96 h, the honeybees were captured randomly in each group, and the silencing effect of RNAi was assessed using qRT-PCR.

T1 sequence (A0A8U0WQ64 entry or part of it): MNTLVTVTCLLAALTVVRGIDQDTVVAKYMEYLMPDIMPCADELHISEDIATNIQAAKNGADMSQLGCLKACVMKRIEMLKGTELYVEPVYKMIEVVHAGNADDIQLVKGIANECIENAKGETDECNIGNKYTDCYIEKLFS

| Compound | Ki (AmelOBP2 [1]) | IC50 (AmelOBP2 [1]) | other results |
| --- | --- | --- | --- |
| CCCCCCCCCCCCCCCCC [heptadecane] | 16.7 µM | 37.3 µM | – |
| phytol | 16.2 µM | 36.3 µM | – |
| CC(=O)/C=C/C1=C(C)CCCC1(C)C [trans-β-ionone] | 4.21 µM | 9.43 µM | – |
| CCCCCCCCCCCCCCCC [hexadecane] | 30.6 µM | 68.6 µM | binding ability to AmelOBP2 (in words) (AmelOBP2 [1]): relatively weak binding ability |
| CCCCCCCCCCCCCCCCCCCCCCCC [tetracosane] | 13.2 µM | 29.6 µM | – |
| CCCCCCCCC=O [1-nonanal] | 5.26 µM | 11.8 µM | Silencing Efficiency (EAG response) [2]: 37.28% |
| C=CC(=C)CCCC(=C)C [alpha-myrcene] | 2.76 µM | 6.18 µM | – |
| O=CC=Cc1ccccc1 [3-phenyl-2-propenal] | 5.69 µM | 12.7 µM | – |
| CCCCCCCCCCCCCCCC(=O)OC [methyl palmitate] | – | – | binding ability to AmelOBP2 (in words) (AmelOBP2 [1]): exhibited binding ability |
| C=C(C)C1CCC(C)C(=O)C1 (centres unmarked) [2-methyl-5-(1-methylethenyl)-cyclohexanone] | 6.03 µM | 13.5 µM | Silencing Efficiency (EAG response) [2]: 32.48% |
| CCCCCCCCCCCCCC [tetradecane] | 8.06 µM | 18 µM | – |
| Cc1ccc(C(C)C)cc1 [p-cymene] | 3.58 µM | 8.02 µM | – |
| CCCCC/C=C/C=O [e-2-octenal] | 7.45 µM | 16.7 µM | Silencing Efficiency (EAG response) [2]: 55.20% |
| Cc1ccc(C)c(C=O)c1 [2,5-dimethyl-benzaldehyde] | 7.12 µM | 15.9 µM | – |
| CCCCCCCCCCCCCCCC(=O)OCC [hexadecanoic acid, ethyl ester] | 12.8 µM | 28.8 µM | binding ability to AmelOBP2 (in words) (AmelOBP2 [1]): exhibited binding ability |
| CCCCCCCCCCCCCCCCCCC [nonadecane] | 14.7 µM | 33 µM | – |
| C=C1CC/C=C(\C)CC[C@@H]2[C@@H]1CC2(C)C [β-caryophyllene] | 4.84 µM | 10.8 µM | – |
| c1ccc(Nc2cccc3ccccc23)cc1 [1-NPN] | – | – | Kd (AmelOBP2 [3]): 2 µM |
| Cc1cccc(C)c1 [1,3-dimethyl-benzene] | 11 µM | 24.6 µM | – |
| CCCCCC=CC(C)=O [3-nonen-2-one] | 4.3 µM | 9.63 µM | – |
| O=CCCc1ccccc1 [benzenepropanal] | 7.3 µM | 16.3 µM | – |

| Compound | Ki (AmelOBP2 [1]) | IC50 (AmelOBP2 [1]) | other results |
| --- | --- | --- | --- |
| CCCCCCC/C=C/C=O [e-2-decenal] | 2.42 µM | 5.41 µM | – |
| CC(C)C(=O)OCC(C)(C)C(OC(=O)C(C)C)C(C)C (centres unmarked) [2,2,4-trimethyl-1,3-pentanediol diisobutyrate] | 4.92 µM | 11 µM | – |
| CC(C)(C)c1cccc(C(C)(C)C)c1 [1,3-bis (1,1-dimethyl ethyl)-benzene] | 2.85 µM | 6.37 µM | – |
| C=C(C)c1ccc(C)cc1 [1-methyl-4-(1-methylethenyl)-benzene] | 6.23 µM | 13.9 µM | – |
| siAmelOBP2-1: siRNA against AmelOBP2 (79 bp); F: GCAAAGUACAUGGAGUAUUTT, R: AAUACUCCAUGUACUUUGCTT (chemistry not given here) | – | – | silencing efficiency (AmelOBP2 mRNA) (AmelOBP2 mRNA; 72 h after siRNA feeding): 62.86% |
| COC(=O)c1ccccc1C(=O)OC [dimethyl phthalate] | 5.54 µM | 12.4 µM | – |
| CCCCCCCCCC=O [decanal] | 3.72 µM | 8.32 µM | – |
| O=Cc1ccccc1 [benzaldehyde] | 3.74 µM | 8.37 µM | – |
| Cc1ccccc1 [methyl benzene] | 8.3 µM | 18.6 µM | Silencing Efficiency (EAG response) [2]: 28.76% |
| O=CCc1ccccc1 [benzeneacetaldehyde] | 4.55 µM | 10.2 µM | – |
| C=CC(C)(O)CCC=C(C)C (centres unmarked) [3,7-dimethyl-1,6-octadien-3-ol] | 7.01 µM | 15.7 µM | – |
| CC1=CCC(C(C)C)=CC1 [gamma-terpinene] | 4.16 µM | 9.31 µM | – |
| C=C/C(C)=C/CC=C(C)C [β-ocimene] | 3.75 µM | 8.4 µM | – |
| CCCCCCCCCCCCCCCCCCCCC [heneicosane] | 21.7 µM | 48.6 µM | binding ability to AmelOBP2 (in words) (AmelOBP2 [1]): relatively weak binding ability |
| CC=Cc1ccc(OC)c(OC)c1 [1,2-dimethoxy-4-(1-propenyl)-benzene] | 7.68 µM | 17.2 µM | – |
| CCCCCCCCCCCC=O [dodecanal] | 1.05 µM | 2.35 µM | – |
| siAmelOBP2-2: siRNA against AmelOBP2 (329 bp); F: GGAUCGCGAAUGAGUGCAUTT, R: AUGCACUCAUUCGCGAUCCTT (chemistry not given here) | – | – | silencing efficiency (AmelOBP2 mRNA) (AmelOBP2 mRNA; 24 h after siRNA feeding): 58.87%; silencing efficiency (AmelOBP2 mRNA) (AmelOBP2 mRNA; 48 h after siRNA feeding): 47.35%; silencing efficiency (AmelOBP2 mRNA) (AmelOBP2 mRNA; 72 h after siRNA feeding): 79.83%; silencing efficiency (AmelOBP2 mRNA) (AmelOBP2 mRNA; 96 h after siRNA feeding): 67.19% |
| CCC/C=C/C=O [e-2-hexenal] | 2.83 µM | 6.33 µM | Silencing Efficiency (EAG response) [2]: 34.64% |
| hexadecenoic acid | 5.29 µM | 11.8 µM | – |
| CC1=CC(=O)C(C(C)C)CC1 (centres unmarked) [3-methyl-6-(1-methylethyl)-2-cyclohexen-1-one] | 11.2 µM | 25 µM | – |

From article PMC11989179, “Odor-Binding Protein 2 in Apis mellifera ligustica Plays Important Roles in the Response to Floral Volatiles Stimuli from Melon and Tomato Flowers” (International Journal of Molecular Sciences, 2025)
